Data from US8354436B2 (4SC Discovery GmbH, priority 2011, dated 2013).
Like-named read-outs stand apart in the source and are kept apart here.

Legend:
Assay type in all cases: cell-based
Conditions in all cases: 48 hours
[1] = tested on: IFN-γ; test: IFN-γ production by PHA-stimulated human PBMC (OptEIA human IFN-g ELISA)
How it was run: (§1)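 Healthy-donor PBMC (1×10^5 cells/well) were activated with 2 μg/ml PHA and cultured with test compounds for 48 hours; cytokines were then quantified in supernatants by the respective immunoassay. Screening used 10, 1, 0.1 and 0.01 μM; IC50 came from semilogarithmic compound titration.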

[2] = tested on: PBMC from healthy human donors; test: T cell proliferation assay (PHA-stimulated human PBMC, BrdU ELISA)
How it was run: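 Proliferation was quantified by BrdU ELISA 48 hours after starting culture of 1×10⁵ human PBMC per well with test compound and 2 μg/ml phytohaemagglutinin. Cells came from healthy donors via Ficoll separation and were kept in RPMI1640 with 10% dialysed heat-inactivated FCS.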

[3] = tested on: IL-17FF; test: IL-17FF production by PHA-stimulated human PBMC (human IL-17F ELI-Pair)
How it was run: as §1

[4] = PHA-stimulated human PBMC, column C, read-out: IC50 (IFNγ)
[5] = PHA-stimulated human PBMC, column D, read-out: IC50 (Tcell proliferation)
[6] = PHA-stimulated human PBMC, column B, read-out: IC50 (IL-17FF)
[7] = human PBMC, 2 μg/ml PHA, read-out: C: IC50 (IFNγ)
[8] = human PBMC, 2 μg/ml PHA, read-out: D: IC50 (Tcell proliferation)
[9] = human PBMC, 2 μg/ml PHA, read-out: B: IC50 (IL-17FF)

SMILES | IC50 [1, 4] [nM] | IC50 [3, 6] [nM] | IC50 [1, 7] [nM] | IC50 [3, 9] [nM] | IC50 [2, 5] [nM] | IC50 [2, 8] [nM]
Cc1nnc(-c2c(-c3c(F)cccc3Cl)noc2-c2cnn(-c3ccncc3)c2C(F)(F)F)o1 [Example B-19, 2-(3-(2-chloro-6-fluorophenyl)-5-(1-(pyridin-4-yl)-5-(trifluoromethyl)-1H-pyrazol-4-yl)isoxazol-4-yl)-5-methyl-1,3,4-oxadiazole] | – | – | 100 to 1000 | 100 to 1000 | – | 100 to 1000
Fc1cccc(-n2ncc(-c3onc(-c4c(F)cccc4Cl)c3-c3nnco3)c2C(F)(F)F)c1 [Example 7] | – | – | < 10 | < 10 | – | 10 to 100
NS(=O)(=O)c1cccc(-n2ncc(-c3onc(-c4c(F)cccc4Cl)c3-c3nnco3)c2C(F)(F)F)c1 [Example B-17, 3-(4-(3-(2-chloro-6-fluorophenyl)-4-(1,3,4-oxadiazol-2-yl)isoxazol-5-yl)-5-(trifluoromethyl)-1H-pyrazol-1-yl)benzenesulfonamide] | – | – | 1000 to 10000 | 1000 to 10000 | – | 1000 to 10000
Fc1cccc(Cl)c1-c1noc(-c2cnn(-c3ccncc3)c2C(F)(F)F)c1-c1nnco1 [Example B-16, 2-(3-(2-chloro-6-fluorophenyl)-5-(1-(pyridin-4-yl)-5-(trifluoromethyl)-1H-pyrazol-4-yl)isoxazol-4-yl)-1,3,4-oxadiazole] | – | – | 100 to 1000 | 100 to 1000 | – | 100 to 1000
COC(=O)c1c(-c2ccccc2Cl)noc1-c1cnn(-c2cccc(F)c2)c1C(F)(F)F [Example I-95, methyl 3-(2-chlorophenyl)-5-(1-(3-fluorophenyl)-5-(trifluoromethyl)-1H-pyrazol-4-yl)isoxazole-4-carboxylate] | < 10 | < 10 | – | – | < 10 | –
COC(=O)c1c(-c2c(F)cccc2Cl)noc1-c1cnn(-c2ccccc2Cl)c1C(F)(F)F [IB-20, methyl 3-(2-chloro-6-fluorophenyl)-5-(1-(2-chlorophenyl)-5-(trifluoromethyl)-1H-pyrazol-4-yl)isoxazole-4-carboxylate] | 1000 to 10000 | 1000 to 10000 | – | – | 1000 to 10000 | –
CCOC(=O)c1c(-c2c(Cl)cncc2Cl)noc1-c1cnn(-c2ccccc2F)c1C(F)(F)F [IB-9, ethyl 3-(3,5-dichloropyridin-4-yl)-5-(1-(2-fluorophenyl)-5-(trifluoromethyl)-1H-pyrazol-4-yl)isoxazole-4-carboxylate] | 10 to 100 | 10 to 100 | – | – | 10 to 100 | –
COC(=O)Nc1c(-c2c(F)cccc2Cl)noc1-c1cnn(-c2cccc(F)c2)c1C(F)(F)F [Example I-138, methyl 3-(2-chloro-6-fluorophenyl)-5-[1-(3-fluorophenyl)-5-(trifluoromethyl)-1H-pyrazol-4-yl]isoxazol-4-ylcarbamate] | 100 to 1000 | 100 to 1000 | – | – | 100 to 1000 | –
Fc1cccc(Cl)c1-c1noc(-c2cnn(-c3ccccn3)c2C(F)(F)F)c1-c1nnco1 [Example B-25, 2-(3-(2-chloro-6-fluorophenyl)-5-(1-(pyridin-2-yl)-5-(trifluoromethyl)-1H-pyrazol-4-yl)isoxazol-4-yl)-1,3,4-oxadiazole] | – | – | 10 to 100 | 100 to 1000 | – | 10 to 100
CCOC(=O)c1c(-c2c(F)cccc2Cl)noc1-c1cnn(CCOC)c1C(F)(F)F [IB-2, ethyl 3-(2-chloro-6-fluorophenyl)-5-(l-(2-methoxyethyl)-5-(trifluoromethyl)-1H-pyrazol-4-yl)isoxazole-4-carboxylate] | 100 to 1000 | 100 to 1000 | – | – | 1000 to 10000 | –
COC(=O)c1c(-c2ccc(Cl)cc2Cl)noc1-c1cnn(-c2cccc(F)c2)c1C(F)(F)F [Example I-111, methyl 3-(2,4-dichlorophenyl)-5-(1-(3-fluorophenyl)-5-(trifluoromethyl)-1H-pyrazol-4-yl)isoxazole-4-carboxylate] | 1000 to 10000 | 1000 to 10000 | – | – | 100 to 1000 | –
Fc1cccc(-n2ncc(-c3onc(-c4c(F)cccc4Cl)c3-c3nnc(C(F)(F)F)o3)c2C(F)(F)F)c1 [Example 6, 2-(3-(2-chloro-6-fluorophenyl)-5-(1-(3-fluorophenyl)-5-(trifluoromethyl)-1H-pyrazol-4-yl)isoxazol-4-yl)-5-(trifluoromethyl)-1,3,4-oxadiazole] | – | – | 10 to 100 | 10 to 100 | – | 10 to 100
Fc1cccc(Cl)c1-c1noc(-c2cnn(-c3ccccc3Cl)c2C(F)(F)F)c1-c1nccs1 [Example B-29, 3-(2-chloro-6-fluorophenyl)-5-(1-(2-chlorophenyl)-5-(trifluoromethyl)-1H-pyrazol-4-yl)-4-(thiazol-2-yl)isoxazole] | – | – | 100 to 1000 | 1000 to 10000 | – | 1000 to 10000

Second part, led by results:

IC50 [1, 4] [nM] | IC50 [3, 6] [nM] | IC50 [1, 7] [nM] | IC50 [3, 9] [nM] | SMILES | IC50 [2, 5] [nM] | IC50 [2, 8] [nM]
100 to 1000 | 100 to 1000 | – | – | CCOC(=O)c1c(-c2c(F)cccc2Cl)noc1-c1cnn(CC2CCOCC2)c1C(F)(F)F [IB-81, ethyl 3-(2-chloro-6-fluorophenyl)-5-(1-((tetrahydro-2H-pyran-4-yl)methyl)-5-(trifluoromethyl)-1H-pyrazol-4-yl)isoxazole-4-carboxylate] | 100 to 1000 | –
100 to 1000 | 10 to 100 | – | – | COC(=O)c1c(-c2ccc(Cl)cc2Cl)noc1-c1cnn(-c2cccc(Cl)c2)c1C(F)(F)F [IB-76, methyl 5-(1-(3-chlorophenyl)-5-(trifluoromethyl)-1H-pyrazol-4-yl)-3-(2,4-dichlorophenyl)isoxazole-4-carboxylate] | 100 to 1000 | –
10 to 100 | 10 to 100 | – | – | COC(=O)c1c(-c2ccccc2F)noc1-c1cnn(-c2cccc(Cl)c2)c1C(F)(F)F [IB-77, methyl 5-(1-(3-chlorophenyl)-5-(trifluoromethyl)-1H-pyrazol-4-yl)-3-(2-fluorophenyl)isoxazole-4-carboxylate] | 10 to 100 | –
1000 to 10000 | 1000 to 10000 | – | – | NC(=S)c1c(-c2c(F)cccc2Cl)noc1-c1cnn(-c2ccccc2Cl)c1C(F)(F)F [IB-101, 3-(2-chloro-6-fluorophenyl)-5-(1-(2-chlorophenyl)-5-(trifluoromethyl)-1H-pyrazol-4-yl)isoxazole-4-carbothioamide] | 1000 to 10000 | –
100 to 1000 | 100 to 1000 | – | – | COC(=O)c1c(-c2ccccc2)noc1-c1cnn(-c2cccc(Cl)c2)c1C(F)(F)F [IB-30, methyl 5-(1-(3-chlorophenyl)-5-(trifluoromethyl)-1H-pyrazol-4-yl)-3-phenylisoxazole-4-carboxylate] | 100 to 1000 | –
1000 to 10000 | 1000 to 10000 | – | – | CCOC(=O)c1c(-c2c(F)cccc2Cl)noc1-c1cnn(-c2cccc(C(N)=O)c2)c1C(F)(F)F [IB-100, ethyl 5-(1-(3-carbamoylphenyl)-5-(trifluoromethyl)-1H-pyrazol-4-yl)-3-(2-chloro-6-fluorophenyl)isoxazole-4-carboxylate] | 1000 to 10000 | –
1000 to 10000 | 1000 to 10000 | – | – | O=C(c1c(-c2c(F)cccc2Cl)noc1-c1cnn(-c2cccnc2)c1C(F)(F)F)N1CCCO1 [IB-54, (3-(2-chloro-6-fluorophenyl)-5-(1-(pyridin-3-yl)-5-(trifluoromethyl)-1H-pyrazol-4-yl)isoxazol-4-yl)(isoxazolidin-2-yl)methanone] | 1000 to 10000 | –
< 10 | < 10 | – | – | COC(=O)c1c(-c2c(Cl)cccc2Cl)noc1-c1cnn(-c2cccc(Cl)c2)c1C(F)(F)F [IB-75, methyl 5-(1-(3-chlorophenyl)-5-(trifluoromethyl)-1H-pyrazol-4-yl)-3-(2,6-dichlorophenyl)isoxazole-4-carboxylate] | < 10 | –
